Consider one molecule from patent US20110269802A1, “METHOD OF DELIVERY OF PERISHABLE LIQUID MIXTURES USING MIXING CAP AND CONTAINER SYSTEM” (priority 2010, published 2011).

The assay deals with diabetic, insulin dependent canine test subject. Nature of the assay: GABA in drinking water given to diabetic, insulin dependent canine subjects; monitoring of fasting blood glucose and fructosamine. Format: in vivo. As to conditions: for decline of fasting blood glucose: 30 mg/kg daily in 200 milliliters of water, oral, after two months of treatment, subject as its own control. Here is the method:
METHODS: GABA (99% pure from Sigma-Aldrich) at a dose of 30 mg/kg was brought into solution in 200 milliliters of water daily so that the diabetic, insulin dependent canine test subject consumed the dose within approximately four hours, based on average consumption of water observed by owners. Fasting blood glucose and fructosamine were monitored once a month. Each canine subject served as its own control, with monitoring of blood glucose and fructosamine off treatment recorded the first two months followed by monitoring while on GABA therapy.

SMILES strings stand for the structures.

`NCCCC(=O)O` [GABA, gamma-aminobutyric acid]: the “concentrations of blood fructosamine” value (both subjects, 30 mg/kg daily in water, on treatment versus off treatment) was “significantly lower”. For the same molecule, the “decline of fasting blood glucose” value by setting is: (first test subject) 49.6%; (second test subject) 50%. Further, under “insulin dependent test subjects, 30 mg/kg daily in water, within two weeks, continued improvement over four months”, the glycemic control result is given as “improved glycemic control within two weeks”.
